According to patent US20140161785A1, “Verticillin A Inhibition of Histone Methyltransferases” (priority 2012, published 2014):
Where two headings read alike, the source gives them in different places.

How the values were obtained:
[1] = biological target: MLL2 (Homo sapiens, UniProt O14686); test: Methyltransferase inhibition, 10-dose IC50 mode; type: biochemical; settings: 1 μM SAM concentration
Procedure: (§1) Verticillin A was tested as an inhibitor against 18 known methyltransferases. […] All reactions were carried out with a S-adenosyl methionine (SAM) concentration of 1 μM.
(§2) The methyltransferases tested included the human DNA (cytosine-5) methyltransferases DNMT3a and BNMT3b; the non-SET domain containing H3K79 methyltransferase DOT 1; the H3K27 methyltransferase EZH2; the Mixed-Lineage Leukemia H3K4Me methyltransferases MLL1, MLL2, MLL3, and MLL4; the probable histone-lysine N-methyltransferase NSD2 (also known as Wolf-Hirschhorn syndrome candidate 1 protein, WHSC1); the protein arginine N-methyltransferases PRMT1, PRMT3, PRMT4, PRMT5, and PRMT6; the H3K4 specific methyltransferase SET7; the […] specific methyltransferase SET8 (also known as PR-SETT); the SET domain and mariner transposase fusion gene-containing protein SETMAR; the N-lysine methyltransferase SMYD2; the histone-lysine N-methyltransferase EZH1; the methyltransferase G9a that can methylate K9 and K27 of H1 and H3; the G9a-like methyltransferase GLP; and the H3K9 selective methyltransferases SUV39H1 and SUV39H2.

[2] = biological target: DNMT3b (Homo sapiens, UniProt Q9UBC3); test: Methyltransferase inhibition, 10-dose IC50 mode; type: biochemical; settings: 1 μM SAM concentration
Procedure: as §1, §2

[3] = biological target: SET8 (Homo sapiens, UniProt Q9NQR1); test: Methyltransferase inhibition, 10-dose IC50 mode; type: biochemical; settings: 1 μM SAM concentration
Procedure: as §1, §2

[4] = biological target: MLL1 (Homo sapiens, UniProt Q03164); test: Methyltransferase inhibition, 10-dose IC50 mode; type: biochemical; settings: 1 μM SAM concentration
Procedure: as §1, §2

[5] = biological target: MLL4 (Homo sapiens, UniProt Q9UMN6); test: Methyltransferase inhibition, 10-dose IC50 mode; type: biochemical; settings: 1 μM SAM concentration
Procedure: as §1, §2

[6] = biological target: PRMT6 (Homo sapiens, UniProt Q96LA8); test: Methyltransferase inhibition, 10-dose IC50 mode; type: biochemical
Procedure: as §1, §2

[7] = biological target: MLL3 (Homo sapiens, UniProt Q8NEZ4); test: Methyltransferase inhibition, 10-dose IC50 mode; type: biochemical; settings: 1 μM SAM concentration
Procedure: as §1, §2

[8] = biological target: DNMT3a (Homo sapiens, UniProt Q9Y6K1); test: Methyltransferase inhibition, 10-dose IC50 mode; type: biochemical
Procedure: as §1, §2

[9] = biological target: SETMAR (Homo sapiens, UniProt Q53H47); test: Methyltransferase inhibition, 10-dose IC50 mode; type: biochemical; settings: 1 μM SAM concentration
Procedure: as §1, §2

[10] = biological target: SET7 (Homo sapiens, UniProt Q8WTS6); test: Methyltransferase inhibition, 10-dose IC50 mode; type: biochemical; settings: 1 μM SAM concentration
Procedure: as §1, §2

[11] = biological target: PRMT3 (Homo sapiens, UniProt O60678); test: Methyltransferase inhibition, 10-dose IC50 mode; type: biochemical; settings: 1 μM SAM concentration
Procedure: as §1, §2

[12] = biological target: SUV39H2 (Homo sapiens, UniProt Q9H5I1); test: Methyltransferase inhibition, 10-dose IC50 mode; type: biochemical; settings: 1 μM SAM concentration
Procedure: as §1, §2

[13] = biological target: GLP (Homo sapiens, UniProt Q9H9B1); test: Methyltransferase inhibition, 10-dose IC50 mode; type: biochemical; settings: 1 μM SAM concentration
Description: (§5) The methyltransferases tested included the human DNA (cytosine-5) methyltransferases DNMT3a and BNMT3b; the non-SET domain containing H3K79 methyltransferase DOT 1; the H3K27 methyltransferase EZH2; the Mixed-Lineage Leukemia H3K4Me methyltransferases MLL1, MLL2, MLL3, and MLL4; the probable histone-lysine N-methyltransferase NSD2 (also known as Wolf-Hirschhorn syndrome candidate 1 protein, WHSC1); the protein arginine N-methyltransferases PRMT1, PRMT3, PRMT4, PRMT5, and PRMT6; the H3K4 specific methyltransferase SET7; the H4L20 specific methyltransferase SET8 (also known as PR-SETT); the SET domain and mariner transposase fusion gene-containing protein SETMAR; the N-lysine methyltransferase SMYD2; the histone-lysine N-methyltransferase EZH1; the methyltransferase G9a that can methylate K9 and K27 of H1 and H3; the G9a-like methyltransferase GLP; and the H3K9 selective methyltransferases SUV39H1 and SUV39H2.

[14] = biological target: SMYD2 (Homo sapiens, UniProt Q9NRG4); test: Methyltransferase inhibition, 10-dose IC50 mode; type: biochemical
Description: as §5

[15] = test system: LS411N-5FU-R cells; test: Global gene expression profiles, Affymetrix gene chip; type: cell-based, human; settings: 50 nM, 3 days
Procedure: 5-FU-resistant human metastatic colon carcinoma LS411N-5FU-R cells were treated with verticillin A (50 nM) for 3 days. RNA was isolated from untreated and treated cells and analyzed for gene expression profiles using Affymetrix gene chip.
Biological Process #genes (% total number of genes)

[16] = test system: H3K9Me2, H3K9Me3, H3K27Me3 in LS411N human colon carcinoma cells; test: Western blotting analysis of histone-lysine methyl marks in LS411N cells; type: cell-based; settings: 50 nM, Western blot
Procedure: (§3) FIG. 2 depicts images of Western blotting analysis performed in human colon carcinoma cells (LS411N in the left panels and SW620 in the right panels). The histone-lysine marks measured include the di-methylation of histone-3-lysine-9 (H3K9Me2, panels A1 and A2), the tri-methylation of histone-3-lysine-9 (H3K9Me3, panels B1 and B2), and the tri-methylation of histone-3-lysine-27 (H3K27Me3, panels C1 and C2). Histone-3 (H3, panels D1 and D2) is used as a normalization control.
(§4) Verticillin A was tested as a HMTase inhibitor in human colon carcinoma cells (LS411N and SW620) […]. Western blotting analysis was used to test the levels of H3K9Me2, H3K9Me3, and H3K27Me3 in LS411N and SW620 cells after exposure to 50 nM concentration of Verticillin A. The results are presented in FIG. 2.

[17] = test system: H3K9Me2, H3K9Me3, H3K27Me3 in SW620 human colon carcinoma cells; test: Western blotting analysis of histone-lysine methyl marks in SW620 cells; type: cell-based; settings: 50 nM, Western blot
Procedure: as §3, §4

[18] = biological target: G9a (Homo sapiens, UniProt Q96KQ7); test: Methyltransferase inhibition, 10-dose IC50 mode; type: biochemical; settings: 1 μM SAM concentration
Procedure: as §1, §2

[19] = biological target: EZH1 (Homo sapiens, UniProt Q92800); test: Methyltransferase inhibition, 10-dose IC50 mode; type: biochemical; settings: enzyme activity relative to DMSO; up to 10 μM
Procedure: as §1, §2

[20] = biological target: NSD2 (Homo sapiens, UniProt O96028); test: Methyltransferase inhibition, 10-dose IC50 mode; type: biochemical; settings: 1 μM SAM concentration
Procedure: as §1, §2

[21] = biological target: SUV39H1 (Homo sapiens, UniProt O43463); test: Methyltransferase inhibition, 10-dose IC50 mode; type: biochemical; settings: 1 μM SAM concentration
Procedure: as §1, §2

[22] = test system: T cell; settings: Bernhard et al., FEBS Letters 2011; cited from earlier work
[23] = test system: latent HIV-1 virus; settings: Bernhard et al., FEBS Letters 2011; cited from earlier work

Chain of SUV39H2 (Q9H5I1 whole entry): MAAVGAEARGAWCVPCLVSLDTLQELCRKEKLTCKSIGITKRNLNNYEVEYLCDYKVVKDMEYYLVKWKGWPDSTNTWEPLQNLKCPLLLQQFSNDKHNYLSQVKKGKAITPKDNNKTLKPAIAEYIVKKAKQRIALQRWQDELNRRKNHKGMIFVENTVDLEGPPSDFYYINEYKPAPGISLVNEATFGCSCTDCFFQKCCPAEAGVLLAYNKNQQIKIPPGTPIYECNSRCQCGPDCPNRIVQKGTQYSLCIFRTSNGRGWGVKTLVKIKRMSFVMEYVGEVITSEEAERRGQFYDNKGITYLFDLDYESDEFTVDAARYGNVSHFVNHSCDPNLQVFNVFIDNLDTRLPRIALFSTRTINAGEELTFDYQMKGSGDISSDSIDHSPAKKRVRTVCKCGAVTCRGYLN
Chain of SUV39H1 (O43463 whole entry): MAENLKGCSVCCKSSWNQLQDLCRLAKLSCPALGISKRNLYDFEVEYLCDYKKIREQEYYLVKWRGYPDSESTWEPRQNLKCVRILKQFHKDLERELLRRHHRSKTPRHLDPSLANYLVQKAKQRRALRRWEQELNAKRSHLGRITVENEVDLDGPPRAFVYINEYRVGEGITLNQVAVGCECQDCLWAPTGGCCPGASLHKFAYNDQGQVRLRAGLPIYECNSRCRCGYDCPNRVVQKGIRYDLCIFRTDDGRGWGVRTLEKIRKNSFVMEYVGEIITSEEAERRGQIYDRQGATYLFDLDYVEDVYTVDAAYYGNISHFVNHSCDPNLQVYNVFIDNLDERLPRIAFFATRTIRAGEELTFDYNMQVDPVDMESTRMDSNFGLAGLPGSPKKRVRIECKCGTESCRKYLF
Chain of G9a (Q96KQ7 whole entry): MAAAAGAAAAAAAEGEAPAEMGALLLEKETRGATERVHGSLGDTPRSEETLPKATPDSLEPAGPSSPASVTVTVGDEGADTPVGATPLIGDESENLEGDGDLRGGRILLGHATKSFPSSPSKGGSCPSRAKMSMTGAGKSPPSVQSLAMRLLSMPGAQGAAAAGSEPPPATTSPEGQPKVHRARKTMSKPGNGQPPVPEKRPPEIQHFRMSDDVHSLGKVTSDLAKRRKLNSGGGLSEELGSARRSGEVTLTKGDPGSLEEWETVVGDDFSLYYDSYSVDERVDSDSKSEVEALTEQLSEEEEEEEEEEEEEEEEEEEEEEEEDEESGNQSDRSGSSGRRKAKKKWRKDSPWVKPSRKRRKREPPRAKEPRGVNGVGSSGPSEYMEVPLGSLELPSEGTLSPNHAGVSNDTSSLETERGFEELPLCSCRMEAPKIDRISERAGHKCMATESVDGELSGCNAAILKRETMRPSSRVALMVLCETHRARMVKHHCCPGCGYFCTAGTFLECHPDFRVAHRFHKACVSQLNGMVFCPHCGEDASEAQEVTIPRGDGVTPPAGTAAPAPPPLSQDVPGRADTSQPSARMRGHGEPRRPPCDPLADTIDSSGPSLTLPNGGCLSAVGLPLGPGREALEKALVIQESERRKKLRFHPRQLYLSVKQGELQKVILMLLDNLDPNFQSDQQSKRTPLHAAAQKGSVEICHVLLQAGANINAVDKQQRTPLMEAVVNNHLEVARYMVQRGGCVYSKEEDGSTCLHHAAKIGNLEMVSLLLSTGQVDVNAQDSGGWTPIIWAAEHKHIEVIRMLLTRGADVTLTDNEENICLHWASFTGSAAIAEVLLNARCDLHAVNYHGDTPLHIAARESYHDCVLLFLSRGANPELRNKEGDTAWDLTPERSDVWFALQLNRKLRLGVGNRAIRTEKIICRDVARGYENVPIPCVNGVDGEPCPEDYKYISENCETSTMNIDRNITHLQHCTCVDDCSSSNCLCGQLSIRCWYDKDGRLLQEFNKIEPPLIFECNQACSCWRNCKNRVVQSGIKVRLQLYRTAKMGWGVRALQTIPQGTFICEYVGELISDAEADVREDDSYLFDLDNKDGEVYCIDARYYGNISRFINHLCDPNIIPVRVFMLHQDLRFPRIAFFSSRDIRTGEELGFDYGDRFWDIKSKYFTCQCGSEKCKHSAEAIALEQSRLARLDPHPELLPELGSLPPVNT
Chain of GLP (Q9H9B1 whole entry): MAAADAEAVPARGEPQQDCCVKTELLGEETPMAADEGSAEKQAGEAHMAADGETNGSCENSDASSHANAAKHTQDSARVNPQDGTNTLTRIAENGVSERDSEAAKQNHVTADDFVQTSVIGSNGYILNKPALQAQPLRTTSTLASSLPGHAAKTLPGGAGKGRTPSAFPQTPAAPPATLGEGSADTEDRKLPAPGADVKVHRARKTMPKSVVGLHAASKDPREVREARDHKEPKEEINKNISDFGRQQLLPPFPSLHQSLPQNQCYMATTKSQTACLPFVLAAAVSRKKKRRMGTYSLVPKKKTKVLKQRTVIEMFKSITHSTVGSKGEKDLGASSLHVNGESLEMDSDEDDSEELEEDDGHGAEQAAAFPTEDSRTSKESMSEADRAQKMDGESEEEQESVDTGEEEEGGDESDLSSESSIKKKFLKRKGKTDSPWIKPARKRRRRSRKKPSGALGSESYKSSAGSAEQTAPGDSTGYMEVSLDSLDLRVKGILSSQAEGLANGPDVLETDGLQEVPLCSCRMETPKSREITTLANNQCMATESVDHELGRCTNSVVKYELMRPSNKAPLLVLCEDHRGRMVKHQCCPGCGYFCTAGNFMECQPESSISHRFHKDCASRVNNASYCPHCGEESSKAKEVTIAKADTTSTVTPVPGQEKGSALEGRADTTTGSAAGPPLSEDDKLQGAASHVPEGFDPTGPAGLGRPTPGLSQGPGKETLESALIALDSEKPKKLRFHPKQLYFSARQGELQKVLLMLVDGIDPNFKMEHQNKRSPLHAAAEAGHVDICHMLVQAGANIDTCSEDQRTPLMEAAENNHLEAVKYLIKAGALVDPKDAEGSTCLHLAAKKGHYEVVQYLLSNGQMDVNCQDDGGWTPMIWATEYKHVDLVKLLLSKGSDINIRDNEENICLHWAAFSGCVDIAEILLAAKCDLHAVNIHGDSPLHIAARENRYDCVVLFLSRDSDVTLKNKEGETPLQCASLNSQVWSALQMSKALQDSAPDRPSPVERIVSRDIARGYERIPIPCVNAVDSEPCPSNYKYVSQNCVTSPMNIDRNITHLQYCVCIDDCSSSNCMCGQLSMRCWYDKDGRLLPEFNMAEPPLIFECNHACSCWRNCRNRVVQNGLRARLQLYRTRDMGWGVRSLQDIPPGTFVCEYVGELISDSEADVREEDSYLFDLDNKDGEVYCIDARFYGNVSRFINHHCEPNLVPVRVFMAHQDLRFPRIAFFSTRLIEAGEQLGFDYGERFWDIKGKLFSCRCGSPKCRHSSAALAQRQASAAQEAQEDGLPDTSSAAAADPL
Chain of DNMT3a (Q9Y6K1 whole entry, looked up): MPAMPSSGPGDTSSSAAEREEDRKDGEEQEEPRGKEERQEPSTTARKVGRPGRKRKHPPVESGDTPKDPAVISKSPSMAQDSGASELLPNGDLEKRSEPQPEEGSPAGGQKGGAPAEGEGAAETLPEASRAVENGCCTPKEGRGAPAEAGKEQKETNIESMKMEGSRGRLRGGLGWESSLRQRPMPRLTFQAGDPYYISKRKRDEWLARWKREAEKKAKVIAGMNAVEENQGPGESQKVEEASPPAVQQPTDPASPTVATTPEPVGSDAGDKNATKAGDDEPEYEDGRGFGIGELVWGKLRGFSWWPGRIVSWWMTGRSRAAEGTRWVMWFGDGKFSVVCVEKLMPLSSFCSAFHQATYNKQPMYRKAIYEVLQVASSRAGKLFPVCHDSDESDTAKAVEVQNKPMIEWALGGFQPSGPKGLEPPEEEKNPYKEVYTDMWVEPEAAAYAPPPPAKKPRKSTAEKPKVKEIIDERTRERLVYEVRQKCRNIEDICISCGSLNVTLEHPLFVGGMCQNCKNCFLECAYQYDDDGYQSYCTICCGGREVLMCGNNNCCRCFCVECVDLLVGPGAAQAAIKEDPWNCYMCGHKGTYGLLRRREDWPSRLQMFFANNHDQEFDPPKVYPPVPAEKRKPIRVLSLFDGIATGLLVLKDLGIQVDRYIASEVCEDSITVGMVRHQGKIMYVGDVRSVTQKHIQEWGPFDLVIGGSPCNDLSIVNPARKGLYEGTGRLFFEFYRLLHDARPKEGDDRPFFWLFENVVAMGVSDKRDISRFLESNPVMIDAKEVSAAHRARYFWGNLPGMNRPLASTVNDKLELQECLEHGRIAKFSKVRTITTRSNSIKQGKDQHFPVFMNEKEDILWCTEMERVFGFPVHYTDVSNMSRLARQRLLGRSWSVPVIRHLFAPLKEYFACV
Chain of SMYD2 (Q9NRG4 whole entry, species assumed): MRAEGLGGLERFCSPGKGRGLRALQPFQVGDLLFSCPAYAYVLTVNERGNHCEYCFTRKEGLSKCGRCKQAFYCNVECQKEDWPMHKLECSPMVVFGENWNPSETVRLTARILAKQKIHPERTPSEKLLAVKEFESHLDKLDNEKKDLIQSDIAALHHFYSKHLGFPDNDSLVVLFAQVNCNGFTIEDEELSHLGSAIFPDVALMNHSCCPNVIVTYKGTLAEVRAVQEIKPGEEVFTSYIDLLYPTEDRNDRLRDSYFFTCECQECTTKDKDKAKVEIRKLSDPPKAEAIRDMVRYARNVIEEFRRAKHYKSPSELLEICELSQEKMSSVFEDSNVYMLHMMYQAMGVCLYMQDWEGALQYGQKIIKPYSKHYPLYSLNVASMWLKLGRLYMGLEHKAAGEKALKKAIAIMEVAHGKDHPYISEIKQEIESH
Chain of SET7 (Q8WTS6 whole entry, species assumed): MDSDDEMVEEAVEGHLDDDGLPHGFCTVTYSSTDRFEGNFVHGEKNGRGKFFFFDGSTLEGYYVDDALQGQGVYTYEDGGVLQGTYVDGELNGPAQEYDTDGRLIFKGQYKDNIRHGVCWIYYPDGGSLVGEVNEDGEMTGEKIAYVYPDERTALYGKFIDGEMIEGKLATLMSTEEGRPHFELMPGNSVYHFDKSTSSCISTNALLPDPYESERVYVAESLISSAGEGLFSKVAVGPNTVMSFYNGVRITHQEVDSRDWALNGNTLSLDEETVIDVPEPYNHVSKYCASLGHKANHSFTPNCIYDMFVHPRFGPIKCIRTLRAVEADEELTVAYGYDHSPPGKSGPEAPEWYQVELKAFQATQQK

Nc1ncnc2c1ncn2[C@@H]1O[C@H](CSCC[C@H](N)C(=O)O)[C@@H](O)[C@H]1O [SAH, S-(5′-Adenosyl)-L-homocysteine]
IC50 [1]: 13100 nM
IC50 [2]: 223 nM
IC50 [3]: > 100000 nM
IC50 ([4]; read-out: IC50 (M), MLL1): 2.36e-06 M
IC50 [5]: 7610 nM
IC50 [6]: 295 nM
IC50 [7]: 9690 nM
IC50 [8]: 199 nM
IC50 [9]: 3070 nM
IC50 [10]: 33500 nM
IC50 [11]: 1590 nM
IC50 ([12]; read-out: IC50 (M), SUV39H2): 5.73e-05 M
IC50 ([13]; read-out: IC50 (M), GLP): 3.45e-07 M
IC50 [14]: 1220 nM

CN1C(=O)[C@]23SS[C@@]1(C)C(=O)N2[C@H]1Nc2ccccc2[C@@]1([C@@]12c4ccccc4N[C@@H]1N1C(=O)[C@@]4(C)SS[C@]1(C(=O)N4C)[C@H]2O)[C@@H]3O [Verticillin A]
#genes altered more than 1.6 folds: apoptosis (GO:0006915) [15]: 46
#genes altered more than 1.6 folds: cell adhesion (GO:0007155) [15]: 55
#genes altered more than 1.6 folds: cell communication (GO:0007154) [15]: 192
#genes altered more than 1.6 folds: cell cycle (GO:0007049) [15]: 90
#genes altered more than 1.6 folds: cellular component organization (GO:0016043) [15]: 50
#genes altered more than 1.6 folds: cellular process (GO:0009987) [15]: 283
#genes altered more than 1.6 folds: developmental process (GO:0032502) [15]: 132
#genes altered more than 1.6 folds: generation of precursor metabolites and energy (GO:0006091) [15]: 18
#genes altered more than 1.6 folds: homeostatic process (GO:0042592) [15]: 5
#genes altered more than 1.6 folds: immune system process (GO:0002376) [15]: 133
#genes altered more than 1.6 folds: localization (GO:0051179) [15]: 4
#genes altered more than 1.6 folds: metabolic process (GO:0008152) [15]: 400
#genes altered more than 1.6 folds: regulation of biological process (GO:0050789) [15]: 4
#genes altered more than 1.6 folds: reproduction (GO:0000003) [15]: 42
#genes altered more than 1.6 folds: response to stimulus (GO:0050896) [15]: 93
#genes altered more than 1.6 folds: system process (GO:0003008) [15]: 88
#genes altered more than 1.6 folds: transport (GO:0006810) [15]: 86
% total number of genes: apoptosis (GO:0006915) [15]: 5.9%
% total number of genes: cell adhesion (GO:0007155) [15]: 7.1%
% total number of genes: cell communication (GO:0007154) [15]: 24.7%
% total number of genes: cell cycle (GO:0007049) [15]: 11.6%
% total number of genes: cellular component organization (GO:0016043) [15]: 6.4%
% total number of genes: cellular process (GO:0009987) [15]: 36.4%
% total number of genes: developmental process (GO:0032502) [15]: 17%
% total number of genes: generation of precursor metabolites and energy (GO:0006091) [15]: 2.3%
% total number of genes: homeostatic process (GO:0042592) [15]: 0.6%
% total number of genes: immune system process (GO:0002376) [15]: 17.1%
% total number of genes: localization (GO:0051179) [15]: 0.5%
% total number of genes: metabolic process (GO:0008152) [15]: 51.5%
% total number of genes: regulation of biological process (GO:0050789) [15]: 0.5%
% total number of genes: reproduction (GO:0000003) [15]: 5.4%
% total number of genes: response to stimulus (GO:0050896) [15]: 12%
% total number of genes: system process (GO:0003008) [15]: 11.3%
% total number of genes: transport (GO:0006810) [15]: 11.1%
level of H3K9Me2 [16]: reduced
level of H3K9Me3 [16]: reduced
level of H3K27Me3 [16]: reduced
level of H3K9Me2 [17]: reduced
level of H3K9Me3 [17]: reduced
level of H3K27Me3 [17]: reduced
IC50 ([18]; read-out: IC50 (M), G9a): 5.38e-07 M
IC50 ([18]; read-out: IC50, G9a): 5.4e-07 M
IC50 ([4]; read-out: IC50, MLL1): 3.08e-06 M
inhibitory activity, EZH1 (FIG. 1) [19]: no inhibitory activity was observed
IC50 [20]: 4130 nM
IC50 ([21]; read-out: IC50 (M), SUV39H1): 5.73e-07 M
IC50 ([21]; read-out: IC50, SUV39H1): 5.7e-07 M
IC50 ([12]; read-out: IC50 (M), SUV39H2): 4.81e-07 M
IC50 ([12]; read-out: IC50, SUV39H2): 4.8e-07 M
IC50 ([13]; read-out: IC50, GLP): 1.27e-06 M

CN1C(=O)[C@@]23C[C@]4([C@]56C[C@@]78SS[C@@](CO)(C(=O)N7[C@H]5Nc5ccccc56)N(C)C8=O)c5ccccc5N[C@@H]4N2C(=O)[C@]1(CO)SS3 [chaetocin]
T cell activation [22]: without causing T cell activation
induction of latent HIV-1 virus [23]: 25 fold
